These results are taken from patent US20240279207A1, “SUBSTITUTED ACYL SULFONAMIDES FOR TREATING CANCER” (The Broad Institute, Inc., priority 2020, published 2024).

The target of experiment [1] is T1, Recombinant human His-tagged Kat6a protein (amino acids 194-810) (Homo sapiens, UniProt Q92794).
T1 construct: Kat6a protein (amino acids 194-810); His
The experiment is described as follows: Kat6a activity assay (TR-FRET, acetylation of Histone-H4-derived peptide). The format is biochemical. The conditions noted are these: 60 mins at 22° C., 220 nM H4 peptide, 600 nM Acetyl Coenzyme A, read-out: KAT6A - DPF/HAT domain IC50 [mol/l] (arithmetic mean). As to the method:
Kat6a inhibitory activities of the compounds described in the present invention were quantified using a Fluorescence Resonance Energy Transfer (TR-FRET) assay which measures acetylation of a synthetic, biotinylated Histone-H4-derived peptide by the enzyme.
In this case 50 nl DMSO were used instead of compounds. […] IC50 values were determined by regression analysis based on a 4 parameter equation (minimum, maximum, ICM, Hill; Y=Max+(Min−Max)/(1+(X/ICso) Hill) using the Screener Software (Genedata).
A general note: TR-FRET usually uses a lanthanide donor and a delayed reading to cut background.

Experiment [2] relates to ESR1 transcription in MVLN cells. Kind of experiment: MVLN reporter assay: repression of ESR1 transcription (luciferase signal). The class given is cell-based. The conditions noted are these: Homo sapiens, MVLN, 24 h, luciferase signal after 24 h, read-out: MVLN reporter assay, IC50 [M] (arithmetic mean). From the text: KAT6A controls transcription of the ESR1 gene in breast cancer cells. Compound treatment that interferes with this mechanism was quantified using MVLN cells. These cells constitutively express the ER and are stably transfected with the luciferase (LUC) reporter gene and the corresponding hormone responsive element derived from the 5′-flanking region of the Xenopus Vitellogenin A2 gene (Pons et al., 1990, Demirpense et al., 1993, Joyeux et al., 1993). The repressive effect on ERα transcription activity of a test chemical is directly related to the luciferase measured in the lysate of treated MVLN cells. […] Each sample was prepared as duplicate and rim wells were excluded. For luciferase signal determination 100 μl of a 1:1 mixture of Steadylite plus (Perkin Elmer; 6016759) and assay medium was added after 24 h for 15 minutes and measured in Victor X3 (Perkin Elmer). To exclude any effects caused by cell loss during the treatment, cell density was determined using Alamar Blue (Invitrogen; DAL1100). Prior to the luciferase measurement 10 μl Alamar Blue were added to each well and the plates were incubated for 2 h in the incubator. Then fluorescence was measured with Victor X3 (Perkin Elmer) at 530 nm/590 nm.
(In general: Reporter assays use an easily measured gene product as a stand-in for the process of interest.)

T1 sequence (Q92794 194-810): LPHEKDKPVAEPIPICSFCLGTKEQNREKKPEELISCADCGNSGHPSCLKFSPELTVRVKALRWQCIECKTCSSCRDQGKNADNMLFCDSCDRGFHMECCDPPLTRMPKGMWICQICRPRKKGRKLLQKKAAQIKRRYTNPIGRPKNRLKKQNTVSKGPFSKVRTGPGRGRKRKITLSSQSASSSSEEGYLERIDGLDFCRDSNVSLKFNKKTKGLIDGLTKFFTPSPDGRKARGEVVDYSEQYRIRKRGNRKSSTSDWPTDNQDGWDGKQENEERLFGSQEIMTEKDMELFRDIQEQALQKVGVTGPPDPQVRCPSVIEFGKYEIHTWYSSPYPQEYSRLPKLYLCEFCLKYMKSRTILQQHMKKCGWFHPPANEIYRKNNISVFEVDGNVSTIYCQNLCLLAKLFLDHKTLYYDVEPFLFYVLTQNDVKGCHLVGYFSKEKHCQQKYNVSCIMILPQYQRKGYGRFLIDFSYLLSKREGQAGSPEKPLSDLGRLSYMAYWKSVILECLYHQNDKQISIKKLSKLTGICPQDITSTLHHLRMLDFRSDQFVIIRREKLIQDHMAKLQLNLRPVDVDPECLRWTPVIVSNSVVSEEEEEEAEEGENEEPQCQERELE

On to `CC(C)Nc1cccc(F)c1S(=O)(=O)NC(=O)c1cc2c(F)cc(N3CCC3)cc2o1` [Example 42, 6-(Azetidin-1-yl)-4-fluoro-N-{2-fluoro-6-[(propan-2-yl)amino]benzene-1-sulfonyl}-1-benzofuran-2-carboxamide], for which the IC50 in experiment [1] worked out at 179 nM; in experiment [2], 8.64e-07 M.
For `O=C(NS(=O)(=O)c1cccc2c1OCCO2)c1cc2c(F)cc(N3CCC3)cc2o1` [Example 172, 6-(Azetidin-1-yl)-N-(2,3-dihydro-1,4-benzodioxine-5-sulfonyl)-4-fluoro-1-benzofuran-2-carboxamide] the same measures were 34 nM and 1.35e-07 M.
The like results for `Cc1ccc(C(C)C)cc1S(=O)(=O)NC(=O)c1cc2c(F)cc(N3CCC3)cc2o1` [Example 32, 6-(Azetidin-1-yl)-4-fluoro-N-[2-methyl-5-(propan-2-yl)benzene-1-sulfonyl]-1-benzofuran-2-carboxamide] were, in that order, 34.2 nM and 5.11e-07 M.
In the case of `O=C(NS(=O)(=O)c1cccc2c1OCCC2)c1cc2c(F)cc(N3CCC3)cc2o1` [Example 12, 6-(Azetidin-1-yl)-N-(3,4-dihydro-2H-1-benzopyran-8-sulfonyl)-4-fluoro-1-benzofuran-2-carboxamide], the IC50 in experiment [1] was 42.7 nM; in experiment [2], 1.63e-07 M.
Turning to `O=C(NS(=O)(=O)c1ccccc1CCC(F)(F)F)c1cc2c(F)cc(N3CCC3)cc2o1` [Example 52, 6-(Azetidin-1-yl)-4-fluoro-N-[2-(3,3,3-trifluoropropyl)benzene-1-sulfonyl]-1-benzofuran-2-carboxamide], the IC50 came to 101 nM in experiment [1] and 1.55e-06 M in experiment [2].
The like results for `CC(C)Oc1ccc(Br)cc1S(=O)(=O)NC(=O)c1cc2c(F)cc(N3CCC3)cc2o1` [Example 170, 6-(azetidin-1-yl)-N-{5-bromo-2-[(propan-2-yl)oxy]benzene-1-sulfonyl}-4-fluoro-1-benzofuran-2-carboxamide] were, in that order, 10.5 nM and 1.33e-07 M.
For `O=C(NS(=O)(=O)c1csc2ccccc12)c1cc2c(F)cc(N3CCC3)cc2o1` [Example 178, 6-(Azetidin-1-yl)-N-(1-benzothiophene-3-sulfonyl)-4-fluoro-1-benzofuran-2-carboxamide] the same measures were 35.3 nM and 3.16e-07 M.
The like results for `CC(C)N(C)c1cc(F)cc(F)c1S(=O)(=O)NC(=O)c1cc2c(F)cc(N3CC(F)C3)cc2o1` [Example 165, N-{2,4-difluoro-6-[methyl(propan-2-yl)amino]benzene-1-sulfonyl}-4-fluoro-6-(3-fluoroazetidin-1-yl)-1-benzofuran-2-carboxamide] were, in that order, 318 nM and 8.64e-07 M.
Consider `CCSc1nc2ccccn2c1S(=O)(=O)NC(=O)c1cc2c(F)cc(N3CCC3)cc2o1` [Example 148, 6-(Azetidin-1-yl)-N-[2-(ethylsulfanyl)imidazo[1,2-a]pyridine-3-sulfonyl]-4-fluoro-1-benzofuran-2-carboxamide], for which the IC50 is 274 nM in experiment [1] and 3.14e-06 M in experiment [2].
The like results for `COc1ccc(N2CCOCC2)cc1S(=O)(=O)NC(=O)c1cc2c(F)cc(N3CCC3)cc2o1` [Example 137, 6-(Azetidin-1-yl)-4-fluoro-N-[2-methoxy-5-(morpholin-4-yl)benzene-1-sulfonyl]-1-benzofuran-2-carboxamide] were, in that order, 26.2 nM and 1.74e-07 M.
On to `CN(C)C(=O)c1ccccc1S(=O)(=O)NC(=O)c1cc2c(F)cc(N3CCC3)cc2o1` [Example 51, 6-(Azetidin-1-yl)-N-[2-(dimethylcarbamoyl)benzene-1-sulfonyl]-4-fluoro-1-benzofuran-2-carboxamide], for which the values for the IC50 in experiment [1] and in experiment [2] were 189 nM and 1.51e-06 M, respectively.
As to `COc1ccc(N2CCN(C)CC2)cc1S(=O)(=O)NC(=O)c1cc2c(F)cc(N3CCC3)cc2o1` [Example 202, 6-(Azetidin-1-yl)-4-fluoro-N-[2-methoxy-5-(4-methylpiperazin-1-yl)benzene-1-sulfonyl]-1-benzofuran-2-carboxamide], the IC50 in experiment [1] stood at 84.5 nM; in experiment [2] it was 1.04e-06 M.
